In patent US6455533B1, “Pharmaceutical compositions for oral administration, comprising an active substance and a cyclodextrin” (UCB, S.A., priority 1997, dated 2002):
Where a name gives a salt, the structure may show the parent alone.

Assays:
[1] = Competition for the complexation with colored indicators; format: physicochemical; settings: complex with β-cyclodextrin
Excerpt: In this case, the cetirizine comes into competition with the colored indicator for the formation of an inclusion complex. The changes in the visible-range spectrum thus make it possible to determine whether or not cetirizine forms an inclusion complex with cyclodextrin. Two acid-base indicators were used; crystal violet and methyl orange. In the case of the acid-base indicators, the changes in the absorption spectrum due to complexation with a cyclodextrin are often large given that the complexation brings about a change in the pK of the indicator. If the pH of the solution is close to the pK, the addition of a cyclodextrin to an acid-base indicator solution brings about ionization or deionization of the indicator, which is reflected by a change in the color of the solution. Consequently, the absorption maximum in the visible spectrum is displaced as a function of the degree of complexation. […] (J.

[2] = pH 3.4
Method: Two solutions A and B were prepared. […] These two solutions were stirred at room temperature until thermodynamic equilibrium was reached.

Structure (SMILES) | association constant (average value) ([1]; competition with crystal violet) [mol⁻¹] | association constant (average value) ([1]; competition with methyl orange) [mol⁻¹] | increase of solubility (factor) [2]
O=C(O)COCCN1CCN(C(c2ccccc2)c2ccc(Cl)cc2)CC1 (stereo not drawn) [cetirizine dihydrochloride, 2-[2-[4-[(4-chlorophenyl)phenylmethyl]-1-piperazinyl]ethoxy]acetic acid] | 3292 | 3587 | 
OC[C@H]1O[C@@H]2O[C@H]3[C@H](O)[C@@H](O)[C@@H](O[C@H]4[C@H](O)[C@@H](O)[C@@H](O[C@H]5[C@H](O)[C@@H](O)[C@@H](O[C@H]6[C@H](O)[C@@H](O)[C@@H](O[C@H]7[C@H](O)[C@@H](O)[C@@H](O[C@H]8[C@H](O)[C@@H](O)[C@@H](O[C@H]1[C@H](O)[C@H]2O)O[C@@H]8CO)O[C@@H]7CO)O[C@@H]6CO)O[C@@H]5CO)O[C@@H]4CO)O[C@@H]3CO [β-cyclodextrin] |  |  | at least 30
